The results in this text go back to patent US6448269B1 (Eli Lilly and Company, priority 1993, dated 2002).

Molecules are shown by their SMILES. Structures can show the parent of a compound that is named as a salt.

For one experiment, the target named is T1, GPIIb-IIIa (Homo sapiens, UniProt P05106+P08514).
T1 construct: Purified platelet GPIIb-IIIa receptor was prepared as described by Fitzgerald; from tissue; host or cells: platelets
T1 sequence (P08514 32-887 limits assumed): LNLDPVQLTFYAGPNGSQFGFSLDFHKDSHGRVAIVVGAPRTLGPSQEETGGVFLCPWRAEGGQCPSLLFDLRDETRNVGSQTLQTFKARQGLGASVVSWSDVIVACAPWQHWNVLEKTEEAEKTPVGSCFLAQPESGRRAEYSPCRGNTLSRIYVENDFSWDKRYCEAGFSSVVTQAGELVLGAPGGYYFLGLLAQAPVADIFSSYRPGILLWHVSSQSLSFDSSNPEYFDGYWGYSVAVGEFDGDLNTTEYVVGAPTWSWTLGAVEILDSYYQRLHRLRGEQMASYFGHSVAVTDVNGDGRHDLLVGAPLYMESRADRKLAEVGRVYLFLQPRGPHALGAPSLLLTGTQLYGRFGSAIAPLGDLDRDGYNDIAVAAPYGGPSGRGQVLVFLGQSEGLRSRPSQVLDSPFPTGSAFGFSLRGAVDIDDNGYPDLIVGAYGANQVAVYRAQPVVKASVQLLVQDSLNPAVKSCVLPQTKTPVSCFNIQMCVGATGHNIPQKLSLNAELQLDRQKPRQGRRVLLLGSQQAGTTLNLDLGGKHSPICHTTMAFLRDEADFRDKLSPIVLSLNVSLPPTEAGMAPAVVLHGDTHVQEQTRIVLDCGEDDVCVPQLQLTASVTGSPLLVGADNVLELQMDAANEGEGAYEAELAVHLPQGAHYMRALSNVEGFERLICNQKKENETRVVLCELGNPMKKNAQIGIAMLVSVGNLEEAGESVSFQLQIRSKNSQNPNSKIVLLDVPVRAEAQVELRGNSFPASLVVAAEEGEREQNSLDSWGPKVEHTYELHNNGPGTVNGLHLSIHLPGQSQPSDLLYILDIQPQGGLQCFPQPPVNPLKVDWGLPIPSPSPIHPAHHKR
T1 sequence (P05106 27-788): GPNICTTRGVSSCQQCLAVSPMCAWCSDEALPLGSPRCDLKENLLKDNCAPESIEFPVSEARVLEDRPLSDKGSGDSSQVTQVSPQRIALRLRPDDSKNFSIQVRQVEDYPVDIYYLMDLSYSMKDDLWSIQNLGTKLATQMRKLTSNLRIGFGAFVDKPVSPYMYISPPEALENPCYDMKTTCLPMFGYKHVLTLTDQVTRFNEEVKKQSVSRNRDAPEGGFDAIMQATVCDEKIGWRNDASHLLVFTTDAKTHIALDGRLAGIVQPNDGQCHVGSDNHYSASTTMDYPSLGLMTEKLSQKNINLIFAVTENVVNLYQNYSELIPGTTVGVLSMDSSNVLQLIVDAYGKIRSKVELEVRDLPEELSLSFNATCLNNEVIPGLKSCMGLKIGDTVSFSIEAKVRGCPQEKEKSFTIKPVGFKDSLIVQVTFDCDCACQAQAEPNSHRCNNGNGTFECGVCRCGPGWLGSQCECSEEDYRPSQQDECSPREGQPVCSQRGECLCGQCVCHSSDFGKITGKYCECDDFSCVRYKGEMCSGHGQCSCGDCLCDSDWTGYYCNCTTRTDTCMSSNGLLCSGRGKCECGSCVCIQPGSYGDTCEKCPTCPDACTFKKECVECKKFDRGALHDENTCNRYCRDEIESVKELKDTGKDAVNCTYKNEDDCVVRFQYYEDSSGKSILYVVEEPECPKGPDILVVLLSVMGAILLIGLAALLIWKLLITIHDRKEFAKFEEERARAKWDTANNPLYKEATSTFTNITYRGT
Description: ELISA IIb-IIIa assay (fibrinogen binding to immobilized GPIIb-IIIa). The note with it: purified platelet GPIIb-IIIa receptor coated on ELISA plates; biotin-labeled fibrinogen 10 nM, 3 hours at 25° C. Here is the method:
In the following assay, GPIIb-IIIa is prepared in purified form, by a method such as described by Fitzgerald, L. A., et al., Anal Biochem (1985) 151:169-177, (the disclosure of which is incorporated herein by reference). GPIIb-IIIa is coated onto microtiter plates. The coated support is then contacted with fibrinogen and with the test material (e.g., compounds of Formula I) and incubated for a sufficient time to permit maximal binding of fibrinogen to the immobilized GPIIb-IIIa. Fibrinogen is typically provided at a concentration of about 5-50 nM and the test material can, if desired, be added at a series of dilution. Typical incubations are 2 to 4 hours at 25° C., the time and temperature being interdependent.
After incubation, the solution containing the fibrinogen and test material is removed and the level of binding of fibrinogen measured by quantitating bound fibrinogen to GPIIb-IIIa. Any suitable means of detection may be used, but it is convenient to employ labeled fibrinogen, for example using biotinylated labels. Such methods are well known in the art.
Purified platelet GPIIb-IIIa receptor was prepared as described by Fitzgerald, L. A., et al., Anal Biochem (1985) 151:169-177 (1985). Vitronectin receptor was prepared as described by Smith, J. W., J. Biol Chem (1988) 263:18726-18731. After purification, the receptors were stored in 0.1% Triton X-100 at 0.1-1.0 mg/ml.
The receptors were coated to the wells of 96-well flat-bottom ELISA plates (Linbro EIA-Plus microtiter plate, Flow Laboratories) after diluting 1:200 with a solution of 20 mM Tris-HCl, 150 mM NaCl, 1 mM CaCl2, pH 7.4, to reduce the Triton X-100 concentration to below its critical micellar concentration and adding an aliquot of 100 ul to each well. The wells were all allowed to incubate overnight at 4° C., and then aspirated to dryness. Additional sites were blocked by the addition of bovine serum albumin (BSA) at 35 mg/ml in the above buffer for 2 hours at 30° C. to prevent nonspecific binding. The wells were then washed once with binding buffer ([…] Tris-HCl, 100 mM NaCl 2 mM CaCl2, 1 mg/ml BSA).
The corresponding ligands (fibrinogen, von Willebrand Factor, or vitronectin) were conjugated to biotin using commercially available reagents and standard protocols. The labeled ligands were added to the receptor-coated wells at final concentration of 10 nM (100 ul/well) and incubated for 3 hours at 25° C. in the presence or absence of the test samples. After incubation, the wells are aspirated to dryness and bound ligand is quantitated.
The bound protein is detected by the addition of antibiotin antibody conjugated to alkaline phosphatase followed by addition of substrate (p-nitrophenyl phosphate), and determination of the optical density of each well at […]. Decreased color development is observed in wells incubated with test samples which inhibit binding of ligand to receptor.
`CCOC(=O)CC1CCc2cc(NC(=O)c3ccc(C(=N)NC(=O)OCC)cc3)ccc2O1` (racemic) [Example 68] had an IC50 of over 1 µM. Take `N=C(N)c1ccc(COc2ccc3c(c2)CCN(C(=O)C(=O)O)C3)cc1` [Example 44]: the IC50 is 0.16 µM. Still for that read-out and setting: under `N=C(N)c1ccc(COc2ccc3cc(CC(=O)O)ccc3c2)cc1` [Example 33] stands 0.005 µM; under `O=C(O)CNC1CCc2cc(OCCCC3CCNCC3)ccc2C1` (stereo not shown) [Example 25], 0.22 µM. Same read-out and setting: the figure for `CC(=O)N(CC(=O)O)C1CCc2cc(OCc3ccc(C(=N)N)cc3)ccc2C1` (stereo not shown) [Example 27] is 0.11 µM; for `N=C(N)c1ccc(COc2ccc3c(c2)CCC(NCC(=O)O)C3)cc1` (stereo not shown) [Example 26] it is 0.52 µM.

The next experiment deals with human platelet-rich plasma. Description: Platelet aggregation assay (Aggregation-Human PRP/ADP). The note with it: 1 min; human platelet-rich plasma incubated with compound 1 minute at 37° C.; ADP-induced aggregation; read-out: Agg: Human PRP/ADP IC50uM. The experiment is classed as cell-based. Here is the method:
Platelet-rich plasma was prepared from healthy human volunteers for use in determining inhibition of platelet aggregation by the compounds.
Platelet-rich plasma was prepared at room temperature by centrifugation of the citrated whole blood at 100×g for 12 minutes. The platelet rich plasma contained approximately 200-400,000 platelets/μl.
Platelet-poor plasma was prepared by centrifugation of citrated whole blood at 12,000×g for 2 minutes.
Platelet aggregation was assayed in a 4-channel platelet aggregation profiler (PAP-4, Biodata, Hatboro, Pa.) according to the manufacturers directions. Inhibition of platelet aggregation was studied by adding varying amounts of […] to stirred human platelet-rich plasma. Specifically, the human platelet-rich plasma was incubated with the compound being tested for 1 minute at 37° C. prior to the addition of a variety of aggregating agents most often ADP 5 μM, but also 1 μg/ml collagen, 1 μM U46619 and 0.3 μM platelet activating factor.
With `N=C(N)c1ccc(C(=O)Nc2ccc3c(c2)CCC(CC(=O)O)C3=O)cc1` (stereo not shown) [Example 30], the IC50 stood at 0.06 µM. Regarding `CCCOC(=O)CC1CCc2cc(NC(=O)c3ccc(C(=N)N)cc3)ccc2O1` (racemic) [Example 86, hydrochloride], the IC50 is 0.078 µM. Turning to `CCOC(=O)CC1CCc2cc(OCc3ccc(C(=N)N)cc3)ccc2O1` (racemic) [Example 45, Hydrochloride], the IC50 is 11 µM.

Take `CCOC(=O)CC1CC(C)(C)c2cc(NC(=O)c3ccc(C(=N)N)cc3)ccc2O1` (racemic) [Example 79, Hydrochloride]: the IC50 was over 100 µM.

For `CCCNC(=N)c1ccc(C(=O)Nc2ccc3c(c2)CCC(CC(=O)OCC)O3)cc1` (racemic) [Example 81, Hydrochloride], the IC50 was 0.39 µM. Take `N=C(N)NCc1ccc(COc2ccc3c(c2)CCN(CC(=O)O)C3=O)cc1` [Example 21, 6-[[4-(Guanidinomethyl)phenyl]methoxy]-3,4-dihydro-1-oxo-2(1H)-isoquinoline Acetic Acid Trifluoroacetate]: the IC50 is over 100 µM.

Regarding `CCOC(=O)CC1CCc2cc(NC(=O)/C=C/C3CCNCC3)ccc2O1` (racemic) [Example 77, Ethyl rac-(3,4-Dihydro-6-(N-(3-(piperidine-4-yl)propenoyl)amino)-2H-1-benzopyran-2-yl)acetate Trifluoroacetate], the IC50 worked out at 1.3 µM. In the case of `O=C(O)CC1CCc2cc(OCCCCC3CCNCC3)ccc2O1` (racemic) [Example 54, rac-(3,4-Dihydro-6-(4-(piperidin-4-yl)butoxy)-2H-1-benzopyran-2-yl)acetic Acid Trifluoroacetate], the IC50 was found to be 12 µM. On the same count and under the same terms, under `CCOC(=O)CC1CCc2cc(NC(=O)c3ccc(C(=N)N)cc3Cl)ccc2C1=O` (racemic) [Example 62, Hydrochloride] stands 6.8 µM; under `COC(=O)CC1CCc2cc(NC(=O)c3ccc(C(=N)N)cc3)ccc2O1` (racemic) [Example 87, Hydrochloride], 0.084 µM. Turning to `CCOC(=O)CCC1(C)CC(=O)c2cc(OCc3ccc(C(=N)N)cc3)ccc2O1` (racemic) [Example 66, Hydrochloride], the IC50 is over 100 µM.

For `CCOC(=O)CCC1(C)C=Cc2cc(OCc3ccc(C(=N)N)cc3)ccc2O1` (racemic) [Example 52, Hydrochloride], the IC50 stood at 100 µM.

For the compound `CCOC(=O)CC1CCc2cc(NC(=O)c3ccc(C(=N)N)cc3Cl)ccc2O1` (racemic) [Example 75, acetate Hydrochloride], the IC50 turned out to be 1.8 µM. On the same count and under the same terms, under `CCCCNC(=N)c1ccc(C(=O)Nc2ccc3c(c2)CCC(CC(=O)OCC)O3)cc1` (racemic) [Example 83, Hydrochloride] stands 0.14 µM; under `CC1(C)CC(CC(=O)O)Oc2ccc(NC(=O)c3ccc(C(=N)N)cc3)cc21` (racemic) [Example 80, rac-(6-(N-(4-(Aminoiminomethyl)benzoyl)amino)-3,4-dihydro-4,4-dimethyl-2H-1-benzopyran-2-yl)acetic Acid], over 100 µM; under `CCOC(=O)CC1CCc2cc(NC(=O)c3ccc(C(=N)NCc4ccccc4)cc3)ccc2O1` (racemic) [Example 92, Ethyl rac-(3,4-Dihydro-6-(N-(4-(N′-(phenylmethylamino)iminomethyl)benzoyl)amino)-2H-1-benzopyran-2-yl)acetate Hydrochloride], 0.24 µM.

As to `CC1(CCC(=O)O)CC(=O)c2cc(OCc3ccc(C(=N)N)cc3)ccc2O1` (racemic) [Example 67, Hydrochloride], the IC50 came out at 29 µM. Still for that read-out and setting: under `NC(=O)c1ccc(C(=O)Nc2ccc3c(c2)CCC(CC(=O)O)O3)cc1` (racemic) [Example 49, rac-(6-(N-(4-Carbamoylbenzoyl)amino)-3,4-dihydro-2H-1-benzopyran-2-yl)acetic Acid] stands 100 µM; under `CCCOC(=O)NC(=N)c1ccc(C(=O)Nc2ccc3c(c2)CCC(CC(=O)OCC)O3)cc1` (racemic) [Example 85], over 100 µM.
